{"source": "patent US5602106A", "about": "“16-membered macrolide derivatives” (priority 1993, dated 1997)", "key": {"[1]": {"tested_on": "certain bacteria, for example, a species of acid-fast bacteria", "conditions": "Chemistry Letters, 769 (1977); cited from earlier work"}, "test strains": {"tested_on": "test strains", "test": "Antimicrobial activity in vitro, test strains overall", "assay_type": "cell-based", "how_it_was_run": "(§1)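 Minimum inhibitory concentration by agar plate dilution on disk agar with 5% horse blood; 5 μl of roughly 10^6 CFU/ml inoculated, 37° C. for 20 h.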"}, "[2]": {"tested_on": "clinically important Gram-positive bacteria", "test": "Antimicrobial activity / growth inhibition", "assay_type": "cell-based", "how_it_was_run": "as §1"}, "S. aureus MS15027": {"tested_on": "S. aureus MS15027", "test": "MIC, agar plate dilution method", "assay_type": "cell-based", "conditions": "Staphylococcus aureus, MS15027, 20 h, read-out: Antimicrobial activity (MIC), 37° C., 20 hours, SDA with 5% horse blood", "how_it_was_run": "as §1"}, "B. catarrhalis W-0506": {"tested_on": "B. catarrhalis W-0506", "test": "MIC, agar plate dilution method", "assay_type": "cell-based", "conditions": "Moraxella catarrhalis, W0506; 37° C., 20 hours, SDA with 5% horse blood; read-out: Antimicrobial activity (MIC)", "how_it_was_run": "as §1"}, "K. pneumoniae PCI602": {"tested_on": "K. pneumoniae PCI602", "test": "MIC, agar plate dilution method", "assay_type": "cell-based", "conditions": "Klebsiella pneumoniae, PCI602, 20 h, 37° C., SDA with 5% horse blood, read-out: Antimicrobial activity (MIC)", "how_it_was_run": "as §1"}, "S. aureus M133": {"tested_on": "S. aureus M133", "test": "MIC, agar plate dilution method", "assay_type": "cell-based", "conditions": "Staphylococcus aureus, M133, 20 h, read-out: Antimicrobial activity (MIC), 37° C., 20 hours, SDA with 5% horse blood", "how_it_was_run": "as §1"}, "S. aureus M126": {"tested_on": "S. aureus M126", "test": "MIC, agar plate dilution method", "assay_type": "cell-based", "conditions": "Staphylococcus aureus, 37° C., 20 hours, SDA with 5% horse blood, read-out: Antimicrobial activity (MIC)", "how_it_was_run": "as §1"}, "S. aureus MS15009/pMS99": {"tested_on": "S. aureus MS15009/pMS99", "test": "MIC, agar plate dilution method", "assay_type": "cell-based", "conditions": "Staphylococcus aureus, MS15009/PMS99, 20 h, read-out: Antimicrobial activity (MIC)", "how_it_was_run": "(§2)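 Seed cultures are prepared in STB for Staphylococcus strains and on blood agar for H. influenzae and B. catarrhalis. A 5 μl inoculum (approx. 10^6 CFU/ml) goes onto blood-supplemented agar plates, which incubate 20 hours at 37° C. before MIC determination.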"}, "S. aureus MS15009/pMS98": {"tested_on": "S. aureus MS15009/pMS98", "test": "MIC, agar plate dilution method", "assay_type": "cell-based", "conditions": "Staphylococcus aureus, MS15009/PMS98, 20 h, read-out: Antimicrobial activity (MIC), 37° C., 20 hours, SDA with 5% horse blood", "how_it_was_run": "as §2"}, "S. epidermidis ATCC14990": {"tested_on": "S. epidermidis ATCC14990", "test": "MIC, agar plate dilution method", "assay_type": "cell-based", "conditions": "Staphylococcus epidermidis, ATCC14990, 20 h, read-out: Antimicrobial activity (MIC), 37° C., 20 hours, SDA with 5% horse blood", "how_it_was_run": "as §1"}, "B. catarrhalis W-0500": {"tested_on": "B. catarrhalis W-0500", "test": "MIC, agar plate dilution method", "assay_type": "cell-based", "conditions": "Moraxella catarrhalis, W0500, 20 h, read-out: Antimicrobial activity (MIC), 37° C., 20 hours, SDA with 5% horse blood", "how_it_was_run": "as §1"}, "S. aureus MS15026": {"tested_on": "S. aureus MS15026", "test": "MIC, agar plate dilution method", "assay_type": "cell-based", "conditions": "Staphylococcus aureus, 37° C., 20 hours, SDA with 5% horse blood, read-out: Antimicrobial activity (MIC)", "how_it_was_run": "as §1"}, "H. influenzae Type b": {"tested_on": "H. influenzae Type b", "test": "MIC, agar plate dilution method", "assay_type": "cell-based", "conditions": "Haemophilus influenzae, 20 h, read-out: Antimicrobial activity (MIC), 37° C., 20 hours, SDA with 5% horse blood", "how_it_was_run": "as §1"}, "M. luteus ATCC9341": {"tested_on": "M. luteus ATCC9341", "test": "MIC, agar plate dilution method", "assay_type": "cell-based", "conditions": "Micrococcus luteus, ATCC9341; 37° C., 20 hours, SDA with 5% horse blood; read-out: Antimicrobial activity (MIC)", "how_it_was_run": "as §1"}, "E. faecalis W-73": {"tested_on": "E. faecalis W-73", "test": "MIC, agar plate dilution method", "assay_type": "cell-based", "conditions": "Enterococcus faecalis, W73, 20 h, read-out: Antimicrobial activity (MIC)", "how_it_was_run": "as §1"}, "S. aureus 209P JC-1": {"tested_on": "S. aureus 209P JC-1", "test": "MIC, agar plate dilution method", "assay_type": "cell-based", "conditions": "Staphylococcus aureus, 209P, 20 h, 37° C., 20 hours, SDA with 5% horse blood; read-out: Antimicrobial activity (MIC)", "how_it_was_run": "as §1"}, "S. pneumoniae Type 1": {"tested_on": "S. pneumoniae Type 1", "test": "MIC, agar plate dilution method", "assay_type": "cell-based", "conditions": "Streptococcus pneumoniae, TYPE1; 37° C., 20 hours, SDA with 5% horse blood; read-out: Antimicrobial activity (MIC)", "how_it_was_run": "(§3)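 MIC by agar plate dilution: ~10^6 CFU/ml inocula (5 μl spots) on Sensitivity disk agar with 5% horse blood, 37 °C for 20 h. Seed cultures grown in Sensitivity test broth, except Streptococcus, Branhamella and Haemophilus, which were precultured on blood agar.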"}, "S. pneumoniae IP692": {"tested_on": "S. pneumoniae IP692", "test": "MIC, agar plate dilution method", "assay_type": "cell-based", "conditions": "Streptococcus pneumoniae, IP692, 20 h, 37° C., 20 hours, SDA with 5% horse blood; read-out: Antimicrobial activity (MIC)", "how_it_was_run": "as §3"}, "Haemophilus influenzae": {"tested_on": "Haemophilus influenzae", "test": "Antimicrobial activity in vitro", "assay_type": "cell-based", "conditions": "vs clarithromycin", "method": "(§4) The effect of the first aspect of the present invention resides in the creation of a novel and useful 16-membered macrolide derivative. Antimicrobial activities of the compounds of the present invention were determined by measuring minimum inhibitory concentration (MIC). Minimum inhibitory concentration was determined by the agar plate dilution method in the following manner.\n(§5) Test strains were subjected to seed culture using Sensitivity test broth (STB, Nissui Pharmaceutical) except that the strains belonging to the genus Streptococcus, Branhamella and Haemophilus were cultured on blood agar plate. A 5 μl portion of cell suspension of the test strains having about 10^6 CFU/ml was inoculated into Sensitivity disk agar (SDA, Nissui Pharmaceutical) supplemented with 5% horse blood and incubated at 37° C. for 20 hours. Then, MIC was measured. […] Antimicrobial activities in vitro of the compounds (1) and (2) are shown in Table 1, and those of the compounds (3) and (4) in Table 3."}, "Streptococcus pneumoniae": {"tested_on": "Streptococcus pneumoniae", "test": "Antimicrobial activity in vitro", "assay_type": "cell-based", "conditions": "compared with MDM and LM-A7", "method": "as §4, §5"}, "Branhamella catarrhalis": {"tested_on": "Branhamella catarrhalis", "test": "Antimicrobial activity in vitro", "assay_type": "cell-based", "conditions": "vs clarithromycin", "method": "as §4, §5"}, "[3]": {"tested_on": "drug-resistant strain of Staphylococcus", "test": "Antimicrobial activity in vitro", "assay_type": "cell-based", "conditions": "vs clarithromycin", "method": "as §4, §5"}, "Enterococcus feacalis": {"tested_on": "Enterococcus feacalis", "test": "Antimicrobial activity in vitro", "assay_type": "cell-based", "conditions": "vs clarithromycin", "method": "as §4, §5"}}, "note": "“Also recorded” adds a separate entry of the source.", "data": [{"compound": "CO[C@@H]1[C@@H](O[C@@H]2O[C@H](C)[C@@H](O[C@H]3C[C@@](C)(OC)[C@@H](OC(=O)CC(C)C)[C@H](C)O3)[C@H](N(C)C)[C@H]2O)[C@@H](CC=O)C[C@@H](C)C(=O)/C=C/C=C/C[C@@H](C)OC(=O)C[C@H]1OC(C)=O", "note": "[3\"-O-methylcarbomycin B]", "values": [{"measurement": "antimicrobial activity compared with carbomycin B", "setting": "[1]", "value": "higher antimicrobial activity than carbomycin B"}]}, {"compound": "CCC(=O)O[C@H]1[C@H](C)O[C@@H](O[C@H]2[C@H](N(C)C)[C@@H](O)[C@H](O[C@H]3[C@@H](CC=O)C[C@@H](C)[C@@H](O)/C=C/C=C/C[C@@H](C)OC(=O)C[C@@H](O)[C@@H]3OC)O[C@@H]2C)C[C@@]1(C)OC", "note": "[(2), 3\"-O-methylleucomycin A7]", "values": [{"measurement": "antimicrobial activities in vitro compared with corresponding compounds having free 3\"-hydroxyl (MDM, LM-A7)", "setting": "test strains; against most of test strains", "value": "twice as high"}, {"measurement": "antimicrobial activities in comparison with rokitamycin", "setting": "test strains; vs rokitamycin", "value": "generally excellent except for a Gram-negative bacterium (Branhamella catarrhalis); also recorded: slightly superior to those of rokitamycin"}, {"measurement": "antimicrobial activities (in words)", "setting": "[2]", "value": "strong antimicrobial activities"}, {"measurement": "MIC", "setting": "S. aureus MS15027", "value": 0.2, "unit": "µg/mL"}, {"measurement": "MIC", "setting": "B. catarrhalis W-0506", "value": 0.78, "unit": "µg/mL"}, {"measurement": "MIC", "setting": "K. pneumoniae PCI602", "value": "> 100", "unit": "µg/mL"}, {"measurement": "MIC", "setting": "S. aureus M133", "value": 0.2, "unit": "µg/mL"}, {"measurement": "MIC", "setting": "S. aureus M126", "value": "> 100", "unit": "µg/mL"}, {"measurement": "MIC", "setting": "S. aureus MS15009/pMS99", "value": "> 100", "unit": "µg/mL"}, {"measurement": "MIC", "setting": "S. aureus MS15009/pMS98", "value": 0.2, "unit": "µg/mL"}, {"measurement": "MIC", "setting": "S. epidermidis ATCC14990", "value": 0.2, "unit": "µg/mL"}, {"measurement": "MIC", "setting": "B. catarrhalis W-0500", "value": 0.39, "unit": "µg/mL"}, {"measurement": "MIC", "setting": "S. aureus MS15026", "value": "> 100", "unit": "µg/mL"}, {"measurement": "MIC", "setting": "H. influenzae Type b", "value": 6.25, "unit": "µg/mL"}, {"measurement": "MIC", "setting": "M. luteus ATCC9341", "value": "< 0.025", "unit": "µg/mL"}, {"measurement": "MIC", "setting": "E. faecalis W-73", "value": 0.39, "unit": "µg/mL"}, {"measurement": "MIC", "setting": "S. aureus 209P JC-1", "value": 0.1, "unit": "µg/mL"}, {"measurement": "MIC", "setting": "S. pneumoniae Type 1", "value": 0.05, "unit": "µg/mL"}, {"measurement": "MIC", "setting": "S. pneumoniae IP692", "value": "< 0.025", "unit": "µg/mL"}, {"measurement": "antimicrobial activity compared with clarithromycin", "setting": "Haemophilus influenzae", "value": "comparable or slightly superior activities"}, {"measurement": "antimicrobial activity against Streptococcus pneumoniae", "setting": "Streptococcus pneumoniae", "value": "considerably improved antimicrobial activity"}, {"measurement": "antimicrobial activity compared with clarithromycin", "setting": "Branhamella catarrhalis", "value": "inferior to that of clarithromycin"}, {"measurement": "antimicrobial activity compared with clarithromycin", "setting": "[3]", "value": "definitely superior antimicrobial activity"}, {"measurement": "antimicrobial activity compared with clarithromycin", "setting": "Enterococcus feacalis", "value": "comparable or slightly superior activities"}]}]}
